Reference: PMC9692725, “Glutathione S-Transferase May Contribute to the Detoxification of (S)-(−)-Palasonin in Plutella xylostella (L.) via Direct Metabolism” (Insects, 2022)

Tests used:
GSTs2 [1] = molecular target: T1, GSTs2 (Plutella xylostella, UniProt Q6F436); assay: CDNB-GSH conjugation, absorbance at […] nm; format: biochemical; conditions: 1 mM GSH, 100 mM phosphate buffer, CDNB 0.05-1.6 mM
T1 construct: recombinant, pET-30a(+), E. coli BL21(DE3), Ni-NTA purified, about 25 kDa expected

GSTd3 = molecular target: T2, GSTd3 (Plutella xylostella, UniProt D7URW9); assay: CDNB-GSH conjugation, absorbance at […] nm; format: biochemical; conditions: 1 mM GSH, 100 mM phosphate buffer, CDNB 0.05-1.6 mM
T2 construct: gene PxGSTd; recombinant, pET-30a(+), E. coli BL21(DE3), Ni-NTA purified, about 25 kDa expected
T2 sequence (D7URW9 1-215): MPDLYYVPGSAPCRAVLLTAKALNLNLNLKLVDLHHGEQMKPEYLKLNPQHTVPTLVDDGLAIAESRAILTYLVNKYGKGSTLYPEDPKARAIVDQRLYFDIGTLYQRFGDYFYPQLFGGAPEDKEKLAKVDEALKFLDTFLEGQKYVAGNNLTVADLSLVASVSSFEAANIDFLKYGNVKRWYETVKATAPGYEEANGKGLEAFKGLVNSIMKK

GSTs1 [2] = molecular target: T3, GSTs1 (Plutella xylostella, UniProt Q6F443); assay: CDNB-GSH conjugation, absorbance at […] nm; format: biochemical; conditions: 1 mM GSH, 100 mM phosphate buffer, CDNB 0.05-1.6 mM
T3 construct: recombinant, pET-30a(+), E. coli BL21(DE3), Ni-NTA purified, about 25 kDa expected
T3 sequence (Q6F443 1-204): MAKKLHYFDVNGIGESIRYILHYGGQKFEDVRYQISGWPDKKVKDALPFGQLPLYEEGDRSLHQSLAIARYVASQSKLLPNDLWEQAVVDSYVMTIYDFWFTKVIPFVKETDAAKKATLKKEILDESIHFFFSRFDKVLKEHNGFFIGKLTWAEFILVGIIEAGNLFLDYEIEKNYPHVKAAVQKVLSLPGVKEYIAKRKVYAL

GSTd5 = system: T4, GSTd5; assay: CDNB-GSH conjugation, absorbance at […] nm; format: biochemical, Plutella xylostella; conditions: 1 mM GSH, 100 mM phosphate buffer, CDNB 0.05-1.6 mM
T4 construct: recombinant, pET-30a(+), E. coli BL21(DE3), Ni-NTA purified, about 25 kDa expected

GSTd4 = molecular target: T5, GSTd4 (Plutella xylostella, UniProt X5CCB0); assay: CDNB-GSH conjugation, absorbance at […] nm; format: biochemical; conditions: 1 mM GSH, 100 mM phosphate buffer, CDNB 0.05-1.6 mM
T5 construct: recombinant, pET-30a(+), E. coli BL21(DE3), Ni-NTA purified, about 25 kDa expected
T5 sequence (X5CCB0 1-219): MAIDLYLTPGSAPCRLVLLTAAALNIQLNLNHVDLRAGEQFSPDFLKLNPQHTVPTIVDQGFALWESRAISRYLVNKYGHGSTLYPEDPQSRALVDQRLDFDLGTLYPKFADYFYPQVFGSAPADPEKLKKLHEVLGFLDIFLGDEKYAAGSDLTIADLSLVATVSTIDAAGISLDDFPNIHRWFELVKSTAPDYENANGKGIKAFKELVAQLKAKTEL

GSTd1 [3] = molecular target: T6, GSTd1 (Plutella xylostella, UniProt A0A8S4F7H5); assay: CDNB-GSH conjugation, absorbance at […] nm; format: biochemical; conditions: 1 mM GSH, 100 mM phosphate buffer, CDNB 0.05-1.6 mM
T6 construct: gene PLXY2_LOCUS7699; recombinant, pET-30a(+), E. coli BL21(DE3), Ni-NTA purified, about 25 kDa expected
T6 sequence (A0A8S4F7H5 1-243 limits assumed): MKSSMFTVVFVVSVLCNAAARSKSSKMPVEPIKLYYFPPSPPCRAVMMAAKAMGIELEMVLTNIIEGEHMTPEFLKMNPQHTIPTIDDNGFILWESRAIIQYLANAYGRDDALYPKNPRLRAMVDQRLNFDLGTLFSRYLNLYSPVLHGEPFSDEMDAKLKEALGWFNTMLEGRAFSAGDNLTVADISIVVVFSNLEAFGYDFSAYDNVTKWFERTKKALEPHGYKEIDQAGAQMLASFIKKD

GSTe4 = molecular target: T7, GSTe4 (Plutella xylostella, UniProt X5D048); assay: CDNB-GSH conjugation, absorbance at […] nm; format: biochemical; conditions: 1 mM GSH, 100 mM phosphate buffer, CDNB 0.05-1.6 mM
T7 construct: recombinant, pET-30a(+), E. coli BL21(DE3), Ni-NTA purified, about 25 kDa expected
T7 sequence (X5D048 1-220): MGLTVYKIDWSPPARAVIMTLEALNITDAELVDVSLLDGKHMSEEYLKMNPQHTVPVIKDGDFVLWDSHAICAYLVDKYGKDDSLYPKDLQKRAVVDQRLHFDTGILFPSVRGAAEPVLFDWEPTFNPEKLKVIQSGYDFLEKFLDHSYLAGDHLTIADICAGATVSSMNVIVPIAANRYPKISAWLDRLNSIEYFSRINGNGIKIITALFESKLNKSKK

GSTd2 [4] = molecular target: T8, GSTd2 (Plutella xylostella, UniProt X5CJR6); assay: CDNB-GSH conjugation, absorbance at […] nm; format: biochemical; conditions: 1 mM GSH, 100 mM phosphate buffer, CDNB 0.05-1.6 mM
T8 construct: recombinant, pET-30a(+), E. coli BL21(DE3), Ni-NTA purified, about 25 kDa expected
T8 sequence (X5CJR6 1-247): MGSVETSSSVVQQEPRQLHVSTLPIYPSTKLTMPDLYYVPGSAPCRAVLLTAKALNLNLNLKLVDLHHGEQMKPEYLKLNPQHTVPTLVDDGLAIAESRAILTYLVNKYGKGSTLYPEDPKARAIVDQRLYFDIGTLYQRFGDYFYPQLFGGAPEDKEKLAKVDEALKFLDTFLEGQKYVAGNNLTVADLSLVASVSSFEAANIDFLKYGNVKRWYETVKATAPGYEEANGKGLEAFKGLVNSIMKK

GSTe5 = molecular target: T9, GSTe5 (Plutella xylostella, UniProt X5CJR9); assay: CDNB-GSH conjugation, absorbance at […] nm; format: biochemical; conditions: 1 mM GSH, 100 mM phosphate buffer, CDNB 0.05-1.6 mM
T9 construct: recombinant, pET-30a(+), E. coli BL21(DE3), Ni-NTA purified, about 25 kDa expected
T9 sequence (X5CJR9 1-232): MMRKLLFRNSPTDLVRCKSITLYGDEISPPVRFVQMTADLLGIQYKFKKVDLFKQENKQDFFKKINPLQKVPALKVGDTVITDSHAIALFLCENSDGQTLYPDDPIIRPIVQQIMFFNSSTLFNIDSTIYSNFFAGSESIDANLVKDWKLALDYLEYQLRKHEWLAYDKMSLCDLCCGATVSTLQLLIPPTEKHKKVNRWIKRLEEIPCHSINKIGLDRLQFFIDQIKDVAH

GSTs2 [5] = molecular target: T1, GSTs2; assay: inhibition of CDNB-GSH conjugation, absorbance at […] nm; format: biochemical; conditions: CDNB and GSH substrates, PBS, 10 min preincubation at 25 °C; competitive (authors' inference)
GSTd1 [6] = molecular target: T6, GSTd1; assay: as above; format: biochemical; conditions: CDNB and GSH substrates, PBS, 10 min preincubation at 25 °C; competitive (authors' inference)
GSTs1 [7] = molecular target: T3, GSTs1; assay: as above; format: biochemical; conditions: CDNB and GSH substrates, PBS, 10 min preincubation at 25 °C; competitive (authors' inference)
GSTd2 [8] = molecular target: T8, GSTd2; assay: as above; format: biochemical; conditions: CDNB and GSH substrates, PBS, 10 min preincubation at 25 °C; competitive (authors' inference)

T1 sequence (Q6F436 1-204): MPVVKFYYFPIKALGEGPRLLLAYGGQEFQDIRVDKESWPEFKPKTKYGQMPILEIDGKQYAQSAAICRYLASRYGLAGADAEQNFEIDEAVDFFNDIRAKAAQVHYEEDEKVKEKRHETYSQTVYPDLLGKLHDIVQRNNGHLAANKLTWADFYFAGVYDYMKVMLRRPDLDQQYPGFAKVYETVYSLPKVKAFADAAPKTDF

SMILES	Km (GSTs2 [1]) [µM]	Km (GSTd3) [µM]	Km (GSTs1 [2]) [µM]	Km (GSTd5) [µM]	Km (GSTd4) [µM]	Km (GSTd1 [3]) [µM]	Km (GSTe4) [µM]	Km (GSTd2 [4]) [µM]	Km (GSTe5) [µM]	relative activity at 1 mM (GSTs2 [5])	relative activity at 1 mM (GSTd1 [6])	relative activity at 1 mM (GSTs1 [7])	relative activity at 1 mM (GSTd2 [8])
O=[N+]([O-])c1ccc(Cl)c([N+](=O)[O-])c1 [1-chloro-2,4-dinitrobenzene]	469	1010	684	546	1120	691	413	682	705				
CC12C(=O)OC(=O)C1C1CCC2O1 [(S)-(−)-palasonin]										0.51 fraction of control	0.35 fraction of control	0.26 fraction of control	0.55 fraction of control
